Among the data in BindingDB's records for patent US20240174696 (Genentech, 2024) are Ki values, retold here.

This assay has as its target T1, Serine/threonine-protein kinase LATS2 (Homo sapiens, UniProt Q9NRM7).
T1 sequence (Q9NRM7 whole entry): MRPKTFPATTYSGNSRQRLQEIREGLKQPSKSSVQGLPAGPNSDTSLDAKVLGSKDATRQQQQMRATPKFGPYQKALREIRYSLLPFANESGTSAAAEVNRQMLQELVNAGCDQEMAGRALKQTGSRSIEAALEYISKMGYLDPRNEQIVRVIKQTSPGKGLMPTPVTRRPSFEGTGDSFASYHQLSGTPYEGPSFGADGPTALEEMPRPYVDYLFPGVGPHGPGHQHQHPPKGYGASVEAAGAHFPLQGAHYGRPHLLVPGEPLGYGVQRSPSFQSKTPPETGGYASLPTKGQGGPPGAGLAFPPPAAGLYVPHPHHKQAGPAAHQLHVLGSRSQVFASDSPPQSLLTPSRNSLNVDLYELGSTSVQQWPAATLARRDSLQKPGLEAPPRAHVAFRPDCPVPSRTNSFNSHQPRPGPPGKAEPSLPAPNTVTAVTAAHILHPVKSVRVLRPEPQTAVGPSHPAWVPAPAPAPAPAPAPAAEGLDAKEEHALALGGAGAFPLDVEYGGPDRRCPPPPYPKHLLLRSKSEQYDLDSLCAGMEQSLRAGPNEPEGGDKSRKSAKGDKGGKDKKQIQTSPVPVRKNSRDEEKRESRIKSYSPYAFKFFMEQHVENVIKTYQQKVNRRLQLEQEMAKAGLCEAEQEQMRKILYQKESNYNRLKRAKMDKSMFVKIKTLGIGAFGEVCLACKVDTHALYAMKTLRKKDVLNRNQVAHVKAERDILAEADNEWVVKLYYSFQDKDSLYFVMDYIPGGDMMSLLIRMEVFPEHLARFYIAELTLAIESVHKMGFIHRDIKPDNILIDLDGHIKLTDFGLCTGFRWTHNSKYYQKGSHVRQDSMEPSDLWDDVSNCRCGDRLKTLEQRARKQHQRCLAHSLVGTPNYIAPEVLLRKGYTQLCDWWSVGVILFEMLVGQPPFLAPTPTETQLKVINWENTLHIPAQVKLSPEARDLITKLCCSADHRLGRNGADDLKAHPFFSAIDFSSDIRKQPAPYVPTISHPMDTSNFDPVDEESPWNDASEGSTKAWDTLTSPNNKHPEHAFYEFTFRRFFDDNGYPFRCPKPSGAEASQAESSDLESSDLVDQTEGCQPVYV
Nature of the assay: Standard LATS2 HTRF Assay. As for the experimental part:
Human LATS2 catalytic domain which contains the amino acids G553-V1088 (accession NP_055387) was purified in-house. The LATS2 catalytic domain was co-purified with Mob1b (accession NP_775739). The LATS2 biochemical HTRF assay was performed using the HTRF KinEASE-STK S1 Kit (Cisbio, Cat #62ST1PEC), following the protocol from the manufacturer. Compounds were dispensed by the Echo Liquid Handler (Labcyte) into a white 384-well plate (PerkinElmer, Cat #6008289). 3 uL of 2×LATS2 enzyme solution was added to the compounds, following by a 10 minute incubation at room temperature. Then, 2×ATP and STK S1 peptide solution was added to initiate the one hour enzyme reaction at room temperature. The final condition of the reaction was 0.2 nM LATS2, 50 μM ATP, 0.5 μM STK S1 peptide in 50 mM HEPES pH7.2, 10 mM MgCl2, 0.1% BGG, 0.005% Brij-35, 1 mM DTT. The reaction was quenched by adding 6 uL of the detection mixture which contained Streptavidin XL665 and STK Antibody-Cryptate (Cisbio), incubate for 1 hour at room temperature. The HTRF (665 nm/620 nm) signal was read on the Envision plater reader (PerkinElmer). The IC50 values were determined by fitting the % inhibition with a nonlinear four-parameter logistical equation. The Ki values were calculated using the Cheng-Prusoff equation for a competitive inhibitor, IC50═Ki (1+S/Km)+M [E] with ATP Km for LATS2=105 μM.
In general terms: In TR-FRET formats the signal depends on donor and acceptor labels being close together.

`COc1cncc2nc(-c3ccncc3)nc(N3CCC4(CCN(C)C4)CC3)c12` [US20240174696, Compound 252] gave a Ki of 0.022 nM.

One may read the Ki as the equilibrium dissociation constant of an inhibitor or competing ligand from its target. Higher therefore signals weaker binding.
